Among the data in patent US9353062B2, “Substituted quinolines as bruton's tyrosine kinases inhibitors” (HangzhouDeRenYuCheng Biotechnology Ltd, priority 2012, dated 2016) are IC50 values, retold here.

Experiment [1] addresses T1, Btk (Homo sapiens (Human), UniProt Q06187). The experiment in a line: Btk kinase assay, method B (Kinase-Glo Plus luminescence). The format is biochemical. Particulars: 10 μM ATP. As to the method:
(§1) An in vitro assay which determines the ability of a test compound to inhibit Btk.
b) Method B conducts the kinase assay with the following condition and procedure: The assay was performed using Kinase-Glo Plus luminescence kinase assay kit (Promega). It measures kinase activity by quantitating the amount of ATP remaining in solution following a kinase reaction. The luminescent signal from the assay is correlated with the amount of ATP present and is inversely correlated with the amount of kinase activity.
The compounds were diluted in 10% DMSO and 5 μl of the dilution was added to a 50 μl reaction so that the final concentration of DMSO is 1% in all of reactions. All of the enzymatic reactions were conducted at 30° C. for 40 minutes. […] After the enzymatic reaction, 50 μl of Kinase-Glo Plus Luminescence kinase assay solution (Promega) was added to each reaction and incubate the plate for 5 minutes at room temperature. Luminescence signal was measured using a BioTek Synergy 2 microplate reader. […] The luminescence data were analyzed using the computer software, Graphpad Prism. The difference between luminescence intensities in the absence of Btk (Lut) and in the presence of Btk (Luc) was defined as 100% activity (Lut−Luc). […] The IC50 value was determined by the concentration causing a half-maximal percent activity. […]

In experiment [2] the target is T1, Btk. As to the kind of experiment: Btk kinase assay, method A (33P-ATP radiometric). The format is biochemical. Particulars: 10 μM ATP. The procedure:
as §1
a) Method A conducts the kinase assay with the following condition and procedure: Reagent: Base Reaction Buffer; 20 mM Hepes (pH 7.5), 10 mM MgCl2, 1 mM EGTA, 0.02% Brij35, 0.02 mg/ml BSA, 0.1 mM Na3VO4, 2 mM DTT, 1% DMSO.
1. Prepare indicated substrate in freshly prepared Base Reaction Buffer.
2. Deliver any required cofactors to the substrate solution obtained in step 1.
3. Deliver indicated kinase into the substrate solution prepared in step 2 and gently mix.
4. Deliver compounds in DMSO into the kinase reaction mixture prepared in step 3.
5. Deliver ^33P-ATP (specific activity 0.01 μCi/μl final) into the reaction mixture prepared in step 4 to initiate the reaction.
6. Incubate kinase reaction for 120 min. at room temperature.
7. Reactions are spotted onto P81 ion exchange paper (Whatman #3698-915).
8. Washing filters extensively in 0.75% Phosphoric acid.
Compounds were tested in 10-dose IC50 mode with 3-fold serial dilution starting at 10 μM; Reactions were carried out at 10 μM ATP.

Experiment [3] deals with BTK signaling in Ramos cells. As to the kind of experiment: Btk Ramos Cellular Assay (phosphorylation of BTK substrate PLCγ2). The format is cell-based. The conditions noted are these: 1 hour compound incubation, anti-human IgM stimulation, PLCγ2 phosphorylation blot, read-out: inhibition of BTK signaling in Ramos cells, IC50. The procedure:
Ramos cells were grown in suspension in T225 flasks, spun down, resuspended in 50 mL serum-free media and incubated for 1 hour. Compound was added to Ramos cells in serum free media to a final concentration of 1, 0.1, 0.01, or 0.001 μM. Ramos cells were incubated with compound for 1 hour, washed again and resuspended in 100 μL serum-free media. Cells were then stimulated with 1 μg of goat F(ab′)2 Anti-Human IgM and incubated on ice for 10 minutes to activate B cell receptor signaling pathways. After 10 minutes, the cells were washed once with PBS and then lysed on ice with Invitrogen Cell Extraction buffer. Sixteen μg total protein from lysates was loaded on gels and blots were probed for phosphorylation of the BTK substrate PLCγ2.

T1 sequence (Q06187 whole entry, species assumed): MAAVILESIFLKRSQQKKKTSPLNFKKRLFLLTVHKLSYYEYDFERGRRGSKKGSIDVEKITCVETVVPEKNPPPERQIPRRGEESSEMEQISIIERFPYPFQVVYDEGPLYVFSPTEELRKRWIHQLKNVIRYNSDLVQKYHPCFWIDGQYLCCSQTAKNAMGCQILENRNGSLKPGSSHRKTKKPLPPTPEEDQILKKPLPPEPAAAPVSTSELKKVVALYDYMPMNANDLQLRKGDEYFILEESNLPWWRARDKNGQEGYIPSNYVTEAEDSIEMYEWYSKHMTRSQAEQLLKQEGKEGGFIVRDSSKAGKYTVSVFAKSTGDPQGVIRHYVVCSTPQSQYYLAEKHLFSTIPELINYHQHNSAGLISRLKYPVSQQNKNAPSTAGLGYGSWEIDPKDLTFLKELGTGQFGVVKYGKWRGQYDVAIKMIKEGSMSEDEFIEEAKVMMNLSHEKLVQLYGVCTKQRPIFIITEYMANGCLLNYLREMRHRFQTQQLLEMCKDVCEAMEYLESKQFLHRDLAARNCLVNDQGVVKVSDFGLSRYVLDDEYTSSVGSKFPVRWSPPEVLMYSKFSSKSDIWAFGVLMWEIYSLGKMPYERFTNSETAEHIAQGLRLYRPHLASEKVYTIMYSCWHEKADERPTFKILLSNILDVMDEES

In general, IC50 refers to the midpoint of a concentration-inhibition curve. For the compound `CN(C)C/C=C/C(=O)Nc1ccc2ncc(C#N)c(Nc3ccc(Oc4ccccc4)cc3)c2c1` [Example 2, (E)-N-(3-cyano-4-((4-phenoxyphenyl)amino)quinolin-6-yl)-4-(dimethylamino)but-2-enamide], the IC50 in experiment [1] is less than 100 nM.

On to `CCOc1cc2ncc(C#N)c(Nc3ccc(Oc4ccccc4)cc3)c2cc1NC(=O)/C=C/CN(C)C` [Example 1, (E)-N-(3-cyano-7-ethoxy-4-((4-phenoxyphenyl)amino)quinolin-6-yl)-4-(dimethylamino)but-2-enamide], for which the results for the IC50 in experiment [2], in experiment [3] and in experiment [1] were 0.64 nM, less than 100 nM and less than 100 nM, respectively.
